Reference: publication PMC11025498, “First-in-human Phase I Trial of TPST-1120, an Inhibitor of PPARα, as Monotherapy or in Combination with Nivolumab, in Patients with Advanced Solid Tumors” (Cancer Research Communications, 2024)
Read-outs that look alike come from different tables or passages of the source.

Experiments:
RCC = experiment: prior regimens of the RCC responders; format: in vivo, human; settings: prior regimens of person RCC responder
patients with RCC = settings: nivolumab monotherapy after previous ICI therapy, retrospective, cited from earlier work
[1] = test system: patients with PD-L1 combined positive score ≤1; set-up: method as in PMID 32359091, PMID 32352498, PMID 35611499, PMID 34907910; settings: CCA, KEYNOTE-158; cited from earlier work

## COc1cc2nccc(Oc3ccc(NC(=O)C4(C(=O)Nc5ccc(F)cc5)CC4)cc3)c2cc1OC [Cabozantinib]
RCC
  Duration: 6.3 mo

## CO[C@H]1C[C@@H]2CC[C@@H](C)[C@@](O)(O2)C(=O)C(=O)N2CCCC[C@H]2C(=O)O[C@H]([C@H](C)C[C@@H]2CC[C@@H](OCCO)[C@H](OC)C2)CC(=O)[C@H](C)/C=C(\C)[C@@H](O)[C@@H](OC)C(=O)[C@H](C)C[C@H](C)/C=C/C=C/C=C/1C [Everolimus]
RCC
  Duration: 6.1 mo

## nivolumab: PD-1 inhibitor
Patients with RCC; ref 33
  ORR: 16%
Patients with RCC; ref 34
  ORR: 23%

## pembrolizumab: ICI monotherapy in the KEYNOTE-158 trial
[1]
  ORR: 2.9%
